Assay results as given in a melting point compilation (Tetko et al.; mined from patent text by program, amines drawn as free bases though some values may be those of a salt).

melting point [°C]	SMILES
184 to 187	O=C(O)CCc1cn(Cc2ccc(F)cc2)c2ccc(C(=O)CC(=O)C(=O)O)cc2c1=O
205 to 207	CC(CO)C1CCC2C3CC=C4CC(O)CC(O)C4(C)C3CCC12C (stereo unspecified)
114 to 115	CC(C)c1nc(-c2cccc3c2OCO3)cc(-c2ccc(F)cc2)c1CO
103 to 105	COc1cccc(-c2ccccc2CNC(=O)C(C)C)c1
164 to 165	CC(C)(C)c1ccc(C(=O)Nc2cc(Cl)c(N)cc2O)cc1
79 to 81	COC(=O)c1ccccc1CS(N)(=O)=O
109 to 112	CC(C)(C)OC(=O)Nc1cn(-c2cccnc2)nc1Br
51 to 52	OCCCCc1ccc(N2CCOCC2)cc1
115 to 118	CC(O)COc1cccc(N)c1C(N)=O (stereo unspecified)
167	FC(F)(F)c1cccc(N2CCN(CC[C@H]3CC[C@H](Nc4ncccn4)CC3)CC2)c1
149 to 150	CCOC(=O)C(=C(c1ccc(F)cc1)c1ccc(F)cc1)n1nnnc1-c1ccccc1
126 to 128	O=C(Cl)c1ncn(Cc2ccc(Cl)c(Cl)c2)c1C(=O)Cl
213 to 223	CCCCCCCCCCCCCCCCOC[C@@H]1OCC[C@H]1OP(=O)([O-])OCC[N+](C)(C)C (relative stereo)
182 to 185	CCOC(=O)c1ncn(-c2nncs2)c1S
127 to 129	COC(=O)c1ccc(CC(C)(C)NCC(O)c2cc3ccccc3o2)cc1 (stereo unspecified)
116 to 118	CN(C)Cc1ccc(CSCCNc2ncc(-c3ccccc3)c(=O)[nH]2)o1
196 to 198	COc1cc(Cl)nc(NC(=O)NS(=O)(=O)c2ccccc2OC(Cl)=CCl)n1
131 to 134	O=C(O)Cc1ccccc1OCCNC(=O)C1Cc2ccccc2N1S(=O)(=O)c1ccc(-c2cccc(C(F)(F)F)c2)cc1 (stereo unspecified)
183 to 185	CSc1c(Cl)ccc(C(=O)O)c1F
275 to 278	CC1C=C(C(=O)C(C#N)C(=O)Nc2ccccc2)c2cccc3c2=C1C1=CN=NC=31 (stereo unspecified)
251 to 253	N#Cc1cccn1-c1cc(C(=O)N=C(N)N)cc(C(=O)N=C(N)N)c1
164 to 165	Cc1c(Nc2cc(-c3cccc(C4NCCc5c4sc4c5CC(C)(C)C4)c3CO)cn(C)c2=O)cnn1C (stereo unspecified)
304 to 306	COc1ccc2c(=O)c(C(N)=O)cn(C)c2c1
80 to 82	N#Cc1ccc(Oc2ccc(N)c(CN)c2)cc1
67 to 68	CCNC(=O)N(NC(=O)c1cccc(Cl)c1)C(C)(C)C

melting point [°C]	SMILES
124	N#Cc1cc([N+](=O)[O-])ccc1N1CCN(Cc2ccccc2)CC1
287 to 290	O=C(O)c1cc2n(c1)CCc1ccccc1C2=O
> 70	CC(=O)OCc1cccc(NC(=O)c2nnn(Cc3ccc(Cl)c(Cl)c3)c2C)c1
208 to 210	O=C1c2ccccc2-n2c(nc3ccccc3c2=O)CN1CCc1ccccc1
54 to 56	Cc1csc(N=CN(C)C)n1
105 to 106	CCCn1nc(-c2ccc(OC)cc2)cc(C(=O)OC)c1=O
100 to 102	CN1C(=O)N2CCSC2(c2ccccc2)C1=O (stereo unspecified)
226	CCOC(=O)c1ccc(-c2cnc3c(c2)N(Cc2c(Cl)cccc2Cl)C(=O)CN3)cc1
95 to 96.5	COc1ncc([N+](=O)[O-])cc1C
163	COC(=O)CC[C@H](NC(=O)c1ccc(C#Cn2cnc3nc(C)c(OC(=O)C(C)(C)C)c-3c2O)cc1)C(=O)OC
239 to 241	Cc1cc(-c2nncc3c(Br)c(OCc4ncnn4C)nn23)no1
116 to 119	CN(C)C(=O)C(C)(C)n1cc(C#N)c(-c2ccccc2)n1
202 to 203	NC(=O)N1C(=O)C(=C(OCCc2ccccc2)c2cccs2)c2cc(F)c(Cl)cc21
263 to 264	Cc1[nH]c2ncnc(N3CCCc4ccccc43)c2c1C
> 350	O=c1c2c[nH]c3ccc(F)cc3c-2nn1-c1ncccn1
109 to 110	CCCCc1nn(-c2ccc(C(F)(F)F)cn2)cc1CCCOc1nn(CC)cc1CC(=O)O
245 to 246	Nc1nc2ccccc2c2c1nc(CCO)n2CCCNC(=O)c1cc2ccccc2cn1
127 to 128	O=C1N(c2ccccc2)c2ccccc2C1(Cc1ccccc1)Cc1ccncc1 (stereo unspecified)
124 to 126	CC(C)(C)CCNC(=O)c1ccc(CC(C)(C)C)cc1
213	COc1nc(Cl)nc(N)c1-c1ccccc1
192 to 194	CC(=O)NC[C@H]1CN(c2ccc(N3CCC(F)(F)CC3)c(F)c2)C(=O)O1
236	Cc1ccc(NC(=O)c2c(Cl)cccc2Cl)c2nccc(-n3ccnc3)c12
232 to 234	Nc1ccc(Sc2ccc3c(c2)OCC(=O)N3)cc1
144 to 145	CN1CCC(O)c2cccc(CSc3nc4ccccc4[nH]3)c21 (stereo unspecified)
72 to 75	COC(=O)c1ccc(N2CCCC2)c(NC(=O)C(CSC(C)=O)Cc2ccccc2)c1 (stereo unspecified)

melting point [°C]	SMILES
188 to 190	O=C(Cc1ccc(O)c2[nH]ncc12)NCc1ccccc1
128	COC(=O)C(C)c1ccc(N2Cc3ccccc3C2=O)cc1 (stereo unspecified)
158 to 160	COc1ccc(-c2cc3cc(OC)cc(CBr)c3o2)cc1
78 to 80	CCOC(=O)Cc1cc(C)c(C(=O)c2ccccc2)n1C
168 to 170	CN(C(=O)Nc1cccnc1)c1ccc2c(ccn2C)c1
162	CC(O)Cn1cc(-c2ccccc2)c2ccccc2c1=O (stereo unspecified)
198 to 200	O=Cc1cc(O)c2c(c1)C(=O)c1cccc(O)c1C2=O
95 to 98	CN1C(=O)CC[C@]2(C)c3ccc(-c4cccc(NC(=O)C(C)(C)C)c4)cc3CC[C@@H]12
117 to 118	O[C@H](CCc1cccnc1)COc1ccc(-c2ccc(Cl)cc2)cc1
197 to 198	CCOC(=O)c1cc2cc(Oc3ccc(S(C)(=O)=O)cc3)cc(O)c2[nH]1
85 to 87	CC(C)(C)OC(=O)N(O)C(=O)CCN
182 to 183	CC(=O)N(CCOc1cccc2ccccc12)c1ccc(C(=O)O)cc1
128 to 131	CC(Oc1ccc(Cl)nc1Cl)C(=O)O (stereo unspecified)
139 to 141	O=C(Nc1ccccc1N1CCc2ccccc21)c1ccccc1F
229 to 231	CCCOc1ccccc1-c1ccc(-c2nnn[nH]2)c(=O)[nH]1
247	Cn1nnc(NC(=O)C2c3ccccc3Oc3ccccc32)n1
203 to 204	CS(=O)(=O)Nc1cc2occc(=O)c2cc1Oc1ccccc1NC=O
146 to 148	NCCOc1cccc2c1CC(=O)N2
96 to 100	COC(=O)COc1cccc(CCN(C)CCCC(C#N)(c2ccc(OC)c(OC)c2)C(C)C)c1 (stereo unspecified)
162 to 164	CC1=C(C)C(=O)C(C(CCCCCC(=O)NCC(=O)O)c2ccccc2)=C(C)C1=O (stereo unspecified)
146 to 148	N=C(NC=Cc1ccc([N+](=O)[O-])cc1)c1cccc(N)c1
28 to 30	Cc1cc(C)c2c(c1O)C(=O)C(C)(C)C2
310 to 312	O=C(O)c1ccc2c(c1)S(=O)(=O)c1ccc([N+](=O)[O-])cc1C=C2
146 to 147	O=C(O)Cc1ccc2c(c1)CC(CCNS(=O)(=O)c1ccc(Cl)cc1)C2 (stereo unspecified)
125 to 127	CCN(CC)c1cccc2nc3n(c12)CC(F)(F)CN3c1ccc(Cl)cc1Cl

melting point [°C]	SMILES
111	C=CCn1c(OC)n[nH]c1=O
107 to 110	Nc1ccc(Br)cc1CO
240 to 245	O=C(O)c1c[nH]c2nc(NCc3ccccc3)nn2c1=O
157	CC(C)(C)c1cc(CCc2ccccc2NC(=O)NCCCCc2ccccc2)cc(C(C)(C)C)c1O
143	CC(=O)N=c1[nH]c2ccccc2n1CCCN1CCN(C(c2ccccc2)c2ccccc2)CC1
199 to 200	NC(=O)c1sc2ncnc(-c3cccc(NC(=O)Nc4cccnc4)c3)c2c1N
99 to 100	CCOC(=O)C1C(Cl)C(=O)N1c1ccc(OC)cc1 (stereo unspecified)
182 to 184	CN1C(=O)C2(COc3cc4c(cc32)OCCO4)c2c(NC(=O)C(C)(C)C)cccc21 (stereo unspecified)
251 to 256	O=C(O)c1nn(Cc2cccc(O)c2)c2c1CCc1cc(OCc3cncnc3)ccc1-2
93 to 98	CC(=O)SCCC(=O)N1[C@@H](c2ccccc2O)SC[C@H]1C(=O)N[C@@H](CCC(=O)O)C(=O)O
197 to 198	Cc1cccc(C)c1-c1cc2cnc(N)nc2n(C)c1=N
221 to 223	CCOCc1nc2c(N)nc3ccccc3c2n1CC1(C(N)=O)CCCCC1
194 to 195	CCOCc1nc2c(N)nc3cc(-c4ccccc4)ccc3c2n1CC1CCN(C(=O)OC(C)(C)C)CC1
258 to 260	Cc1cc(C)c2cc(-c3ccccc3)c(=O)[nH]c2n1
120 to 122	CCOC(=O)N1C(=S)NC(C)=C(C(=O)OC(C)C)C1c1cccc([N+](=O)[O-])c1 (single isomer, unassigned; (-))
158	O=C1Cc2ccccc2N1c1c(Cl)cc(OCc2ccc3ccccc3n2)cc1Cl
203 to 205	Cc1nccc2c1ccc(=O)n2C
168 to 170	CN(CCOc1ccc(CC(F)C(N)=O)cc1)c1nc2ccccc2o1 (stereo unspecified)
122 to 123	CCCC[C@H](NC(=O)[C@H](CC(C)C)NC(=O)c1ccc(C)cc1)C(=O)CSCc1ccco1
247 to 248	O=c1nc(-c2ccc(CO)cn2)sc2ccccc12
180 to 182	Cc1nc(N)sc1-c1ccnc(Nc2ccc(N3CCSCC3)cc2)n1
120	O=c1cc(OCc2ccccc2)c2ccc(OCCc3ccc(F)cc3)cc2o1
86 to 87	COc1cc(Nc2c(C#N)cnc3ccc(/C=C/CCN4CCOCC4)cc23)cc(OC)c1OC

SMILES	melting point [°C]
Cc1cccc(NC(=O)NC2N=C(c3ccccc3F)c3ccccc3N(Cc3cccnc3)C2=O)c1 (racemic)	242 to 243
CC(=O)N(C)C(=N[N+](=O)[O-])N(Cc1cnc(Cl)s1)C(C)=O	72 to 74
OCc1ccc(-c2cccc(-c3cn([C@H]4CN5CCC4CC5)nn3)c2)cc1	214
